Measured values from US20020137929A1, “1 - (3-heterocyclylphenyl) isothiourea, -isourea, -guanidine and -amidine herbicidal agents” (Intellectual Property Department, BASF Aktiengesellschaft, priority 1998, published 2002).

Tests used:
ECHCG (Barnyardgrass) = assay: Postemergence herbicidal evaluation; format: in vivo, Echinochloa crus-galli; conditions: postemergence
How it was run: (§1)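 Scores (0–9) reflect plant stand, vigor, malformation, size, chlorosis and general appearance relative to control, read 4 to 5 weeks after treatment and averaged where tests were repeated. Application: about 0.0156–0.500 kg/ha sprayed at 40 psi onto two-week seedlings.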

[1] = tested on: CHEAL (Lambsquarters, Common); assay: Postemergence herbicidal evaluation; format: in vivo, Chenopodium album; conditions: postemergence
How it was run: as §1

[2] = tested on: CHEAL (Lambsquarters, Common); assay: Preemergence herbicidal evaluation; format: in vivo, Chenopodium album; conditions: rated 4-5 weeks after treatment
How it was run: (§2)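 Rating at 4–5 wk post-spray on a 0–9 visual scale vs control. Application: aqueous acetone, ~0.0156–0.500 kg/ha, to soil surface after seeding, preemergence.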

AMBEL (Ragweed, Common) [3] = assay: Postemergence herbicidal evaluation; format: in vivo, Ambrosia artemisifolia; conditions: postemergence
How it was run: as §1

ABUTH (Velvetleaf) = assay: Preemergence herbicidal evaluation; format: in vivo, Abutilon theophrasti; conditions: rated 4-5 weeks after treatment
How it was run: as §2

[4] = tested on: IPOHE (Morningglory, Ivyleaf); assay: Postemergence herbicidal evaluation; format: in vivo, Ipomoea hederacea; conditions: postemergence
How it was run: as §1

MOOVA (Monochoria) = assay: Preemergence weed control under flooded paddy conditions; format: in vivo, Monochoria vaginalis; conditions: rated 3-4 weeks after treatment
How it was run: (§3)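 Herbicidal effect is scored visually on a 0-9 scale against an untreated control, three to four weeks after compounds are pipetted into the flood water (1.5 to 3 cm deep) over seeds planted in silt loam at 0.5 cm depth. Rates: about 0.0313 to 0.500 kg/ha.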

[5] = tested on: SAGPY (Arrowhead (Pygmaea)); assay: as above; format: in vivo, Sagittaria pygmaea; conditions: rated 3-4 weeks after treatment
How it was run: as §3

[6] = tested on: TRZAWR (Wheat, Winter, cv Riband); assay: Postemergence herbicidal evaluation; format: in vivo, Triticum aestivum; conditions: postemergence
How it was run: as §1

AMBEL (Ragweed, Common) [7] = assay: Preemergence herbicidal evaluation; format: in vivo, Ambrosia artemisifolia; conditions: rated 4-5 weeks after treatment
How it was run: as §2

CASOB (Sicklepod) [8] = assay: Preemergence herbicidal evaluation; format: in vivo, Cassia obtusifolia; conditions: rated 4-5 weeks after treatment
How it was run: as §2

CASOB (Sicklepod) [9] = assay: Postemergence herbicidal evaluation; format: in vivo, Cassia obtusifolia; conditions: postemergence
How it was run: as §1

[10] = tested on: GLXMAW (Soybean, Williams); assay: Preemergence herbicidal evaluation; format: in vivo, Glycine max, (L.) Merr. cv Williams; conditions: rated 4-5 weeks after treatment
How it was run: as §2

ORYSAT (Rice, Tebonnet) = assay: Preemergence herbicidal evaluation; format: in vivo, Oryza sativa, (L.) Tebonnet; conditions: rated 4-5 weeks after treatment
How it was run: as §2

[11] = tested on: GLXMAW (Soybean, Williams); assay: Postemergence herbicidal evaluation; format: in vivo, Glycine max, (L.) Merr. cv Williams; conditions: postemergence
How it was run: as §1

[12] = tested on: IPOHE (Morningglory, Ivyleaf); assay: Preemergence herbicidal evaluation; format: in vivo, Ipomoea hederacea; conditions: rated 4-5 weeks after treatment
How it was run: as §2

With `CC(C)N1C(=O)CSC1=Nc1cc(-n2c(=O)cc(C(F)(F)F)n(C)c2=O)c(F)cc1Cl` [Compound 164, 3-{4-Chloro-2-fluoro-5-[(3-isopropyl-4-oxo-2-thiazolidinylidene)amino]phenyl}-1-methyl-6-(trifluoromethyl)-2,4(1H,3H)-pyrimidinedione] the “Herbicidal rating ECHCG” value (ECHCG (Barnyardgrass); rate 0.0156 kg/ha) was 2.0, the “Herbicidal rating ECHCG” value (ECHCG (Barnyardgrass); rate 0.0313 kg/ha) was 3.0 and the “Herbicidal rating ECHCG” value (ECHCG (Barnyardgrass); rate 0.0625 kg/ha) was 3.0. The “Herbicidal rating ECHCG” value (ECHCG (Barnyardgrass); rate 0.1250 kg/ha) was 3.0, the “Herbicidal rating CHEAL” value ([1]; rate 0.0156 kg/ha) was 9.0 and the “Herbicidal rating CHEAL” value ([1]; rate 0.0313 kg/ha) was 9.0. The “Herbicidal rating CHEAL” value ([1]; rate 0.0625 kg/ha) was 9.0, the “Herbicidal rating CHEAL” value ([1]; rate 0.1250 kg/ha) was 9.0 and the “Preemergence herbicidal rating CHEAL” value ([2]; 0.0156 kg/ha) was 9.0. The “Preemergence herbicidal rating CHEAL” value ([2]; 0.0313 kg/ha) was 9.0, the “Preemergence herbicidal rating CHEAL” value ([2]; 0.0625 kg/ha) was 9.0 and the “Preemergence herbicidal rating CHEAL” value ([2]; 0.1250 kg/ha) was 9.0. For the same molecule, the “Preemergence herbicidal rating CHEAL” value ([2]; 0.2500 kg/ha) was 9.0, the “Preemergence herbicidal rating CHEAL” value ([2]; 0.5000 kg/ha) was 9.0 and the “Herbicidal rating AMBEL” value (AMBEL (Ragweed, Common) [3]; rate 0.0156 kg/ha) was 7.0. For the same molecule, the “Herbicidal rating AMBEL” value (AMBEL (Ragweed, Common) [3]; rate 0.0313 kg/ha) was 9.0, the “Herbicidal rating AMBEL” value (AMBEL (Ragweed, Common) [3]; rate 0.0625 kg/ha) was 9.0 and the “Herbicidal rating AMBEL” value (AMBEL (Ragweed, Common) [3]; rate 0.1250 kg/ha) was 9.0. For the same molecule, the “Preemergence herbicidal rating ABUTH” value (ABUTH (Velvetleaf); 0.0156 kg/ha) was 6.0, the “Preemergence herbicidal rating ABUTH” value (ABUTH (Velvetleaf); 0.0313 kg/ha) was 9.0 and the “Preemergence herbicidal rating ABUTH” value (ABUTH (Velvetleaf); 0.0625 kg/ha) was 9.0. The “Preemergence herbicidal rating ABUTH” value (ABUTH (Velvetleaf); 0.1250 kg/ha) was 9.0, the “Preemergence herbicidal rating ABUTH” value (ABUTH (Velvetleaf); 0.2500 kg/ha) was 9.0 and the “Preemergence herbicidal rating ABUTH” value (ABUTH (Velvetleaf); 0.5000 kg/ha) was 9.0. For the same molecule, the “Herbicidal rating IPOHE” value ([4]; rate 0.0156 kg/ha) was 9.0, the “Herbicidal rating IPOHE” value ([4]; rate 0.0313 kg/ha) was 9.0 and the “Herbicidal rating IPOHE” value ([4]; rate 0.0625 kg/ha) was 9.0. The “Herbicidal rating IPOHE” value ([4]; rate 0.1250 kg/ha) was 9.0, the “herbicidal effect rating, MOOVA” value (MOOVA (Monochoria); 0.0313 kg/ha) was 8.0 and the “herbicidal effect rating, MOOVA” value (MOOVA (Monochoria); 0.0625 kg/ha) was 9.0. The “herbicidal effect rating, MOOVA” value (MOOVA (Monochoria); 0.1250 kg/ha) was 9.0, the “herbicidal effect rating, MOOVA” value (MOOVA (Monochoria); 0.2500 kg/ha) was 9.0 and the “herbicidal effect rating, SAGPY” value ([5]; 0.0313 kg/ha) was 4.0. For the same molecule, the “herbicidal effect rating, SAGPY” value ([5]; 0.0625 kg/ha) was 4.0, the “herbicidal effect rating, SAGPY” value ([5]; 0.1250 kg/ha) was 5.0 and the “herbicidal effect rating, SAGPY” value ([5]; 0.2500 kg/ha) was 6.0. The “Herbicidal rating TRZAWR” value ([6]; rate 0.0156 kg/ha) was 4.0, the “Herbicidal rating TRZAWR” value ([6]; rate 0.0313 kg/ha) was 4.5 and the “Herbicidal rating TRZAWR” value ([6]; rate 0.0625 kg/ha) was 5.5. For the same molecule, the “Herbicidal rating TRZAWR” value ([6]; rate 0.1250 kg/ha) was 5.5, the “Preemergence herbicidal rating AMBEL” value (AMBEL (Ragweed, Common) [7]; 0.0156 kg/ha) was 6.0 and the “Preemergence herbicidal rating AMBEL” value (AMBEL (Ragweed, Common) [7]; 0.0313 kg/ha) was 7.0. The “Preemergence herbicidal rating AMBEL” value (AMBEL (Ragweed, Common) [7]; 0.0625 kg/ha) was 7.0, the “Preemergence herbicidal rating AMBEL” value (AMBEL (Ragweed, Common) [7]; 0.1250 kg/ha) was 7.0 and the “Preemergence herbicidal rating AMBEL” value (AMBEL (Ragweed, Common) [7]; 0.2500 kg/ha) was 9.0. The “Preemergence herbicidal rating AMBEL” value (AMBEL (Ragweed, Common) [7]; 0.5000 kg/ha) was 9.0, the “Preemergence herbicidal rating CASOB” value (CASOB (Sicklepod) [8]; 0.0156 kg/ha) was 1.0 and the “Preemergence herbicidal rating CASOB” value (CASOB (Sicklepod) [8]; 0.0313 kg/ha) was 0.0. For the same molecule, the “Preemergence herbicidal rating CASOB” value (CASOB (Sicklepod) [8]; 0.0625 kg/ha) was 7.0, the “Preemergence herbicidal rating CASOB” value (CASOB (Sicklepod) [8]; 0.1250 kg/ha) was 7.0 and the “Preemergence herbicidal rating CASOB” value (CASOB (Sicklepod) [8]; 0.2500 kg/ha) was 9.0. The “Preemergence herbicidal rating CASOB” value (CASOB (Sicklepod) [8]; 0.5000 kg/ha) was 5.0, the “Herbicidal rating CASOB” value (CASOB (Sicklepod) [9]; rate 0.0156 kg/ha) was 2.0 and the “Herbicidal rating CASOB” value (CASOB (Sicklepod) [9]; rate 0.0313 kg/ha) was 2.0. The “Herbicidal rating CASOB” value (CASOB (Sicklepod) [9]; rate 0.0625 kg/ha) was 5.0, the “Herbicidal rating CASOB” value (CASOB (Sicklepod) [9]; rate 0.1250 kg/ha) was 6.0 and the “Preemergence herbicidal rating GLXMAW” value ([10]; 0.0156 kg/ha) was 1.0. The “Preemergence herbicidal rating GLXMAW” value ([10]; 0.0313 kg/ha) was 2.0, the “Preemergence herbicidal rating GLXMAW” value ([10]; 0.0625 kg/ha) was 5.0 and the “Preemergence herbicidal rating GLXMAW” value ([10]; 0.1250 kg/ha) was 7.0. The “Preemergence herbicidal rating GLXMAW” value ([10]; 0.2500 kg/ha) was 7.0, the “Preemergence herbicidal rating GLXMAW” value ([10]; 0.5000 kg/ha) was 7.0 and the “Preemergence herbicidal rating ORYSAT” value (ORYSAT (Rice, Tebonnet); 0.0156 kg/ha) was 1.0. For the same molecule, the “Preemergence herbicidal rating ORYSAT” value (ORYSAT (Rice, Tebonnet); 0.0313 kg/ha) was 1.0, the “Preemergence herbicidal rating ORYSAT” value (ORYSAT (Rice, Tebonnet); 0.0625 kg/ha) was 3.0 and the “Preemergence herbicidal rating ORYSAT” value (ORYSAT (Rice, Tebonnet); 0.1250 kg/ha) was 5.0. The “Preemergence herbicidal rating ORYSAT” value (ORYSAT (Rice, Tebonnet); 0.2500 kg/ha) was 7.0, the “Preemergence herbicidal rating ORYSAT” value (ORYSAT (Rice, Tebonnet); 0.5000 kg/ha) was 9.0 and the “Herbicidal rating GLXMAW” value ([11]; rate 0.0156 kg/ha) was 6.0. The “Herbicidal rating GLXMAW” value ([11]; rate 0.0313 kg/ha) was 6.0, the “Herbicidal rating GLXMAW” value ([11]; rate 0.0625 kg/ha) was 7.0 and the “Herbicidal rating GLXMAW” value ([11]; rate 0.1250 kg/ha) was 7.5. The “Preemergence herbicidal rating IPOHE” value ([12]; 0.0156 kg/ha) was 4.0, the “Preemergence herbicidal rating IPOHE” value ([12]; 0.0313 kg/ha) was 9.0 and the “Preemergence herbicidal rating IPOHE” value ([12]; 0.0625 kg/ha) was 9.0. For the same molecule, the “Preemergence herbicidal rating IPOHE” value ([12]; 0.1250 kg/ha) was 9.0, the “Preemergence herbicidal rating IPOHE” value ([12]; 0.2500 kg/ha) was 9.0 and the “Preemergence herbicidal rating IPOHE” value ([12]; 0.5000 kg/ha) was 9.0.
